According to PubChem BioAssay (NCI):
Values joined by “and” are separate entries in the source; they are usually repeats but may differ in a detail not shown here. Equal entries are not always repeated.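 Each compound was tested at five concentrations against cells in 96-well plates for 48 hours. Here, GI50 denotes the concentration required for 50% inhibition of growth. TGI is the concentration that stops growth completely.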 Active and inactive are the calls of the source. Cut-off read from the data, not from the text of the source: active = GI50 below about 0.43 µM; inactive = the rest.

Tests used:
Experiment in all cases: NCI tumour cell line growth inhibition, 48 h
OVCAR-3 ovarian = tested on: OVCAR-3 ovarian
XF 498 CNS = tested on: XF 498 CNS
SNB-75 CNS = tested on: SNB-75 CNS
DMS 114 small cell lung = tested on: DMS 114 small cell lung
DMS 273 small cell lung = tested on: DMS 273 small cell lung
HCT-116 colon = tested on: HCT-116 colon
HOP-18 NSCLC = tested on: HOP-18 NSCLC
MDA-MB-435 = tested on: MDA-MB-435
PC-3 prostate = tested on: PC-3 prostate

| SMILES | TGI (OVCAR-3 ovarian) | TGI (XF 498 CNS) | TGI (SNB-75 CNS) | TGI (DMS 114 small cell lung) | TGI (DMS 273 small cell lung) | TGI (HCT-116 colon) | GI50 (OVCAR-3 ovarian) | GI50 (SNB-75 CNS) | GI50 (HOP-18 NSCLC) [µM] | TGI (HOP-18 NSCLC) [µM] | GI50 (DMS 273 small cell lung) | GI50 (HCT-116 colon) | outcome (XF 498 CNS) | outcome (HOP-18 NSCLC) | GI50 (DMS 114 small cell lung) | TGI (MDA-MB-435) [µM] | GI50 (XF 498 CNS) [µM] | TGI (PC-3 prostate) [µM] |
| --- | --- | --- | --- | --- | --- | --- | --- | --- | --- | --- | --- | --- | --- | --- | --- | --- | --- | --- |
| CC(C)N(C(=O)C12C3C4C1C1C2C3C41C(O)C(C)(C)C)C(C)C (stereo not drawn) | > 50 µM | > 50 µM | > 50 µM | > 50 µM | > 50 µM | > 50 µM |  |  |  |  |  |  |  |  |  |  |  |  |
| CC[O-].CC[O-].O=C1C(=C([O-])c2ccccc2)C(=O)c2ccccc21.O=C1C(=C([O-])c2ccccc2)C(=O)c2ccccc21.[Ti+4] | > 100 µM |  | > 100 µM |  | > 100 µM | > 100 µM | > 100 µM | > 100 µM | > 100 | > 100 | 54.8 µM | > 100 µM |  |  |  |  |  |  |
| COc1ccc([C@H]2CC(=O)N3CCCC3N2)cc1 (stereo partly drawn) |  | > 100 µM | > 100 µM | > 100 µM | > 100 µM | > 100 µM |  |  |  | > 100 |  |  |  |  |  |  |  |  |
| CC(=O)N(CCN)CCN | > 10 µM | > 100 µM | > 100 µM | > 10 µM | > 10 µM | > 10 µM |  |  |  |  |  |  |  |  |  |  |  |  |
| C=C(C)C1CC2C(C)=C(OC(C)=O)C1n1c(=O)c3cc4ccccc4cc3c(=O)n12 (stereo not drawn) | > 100 µM |  | > 85.5 µM | > 100 µM | > 100 µM | > 100 µM |  |  |  | > 100 |  |  |  |  |  |  |  |  |
| CSc1ccc(/C=C2\CNC/C(=C\c3ccc(SC)cc3)C2=O)cc1 | > 136 µM and 150 µg/mL | 16.8 µM | 86.4 µM and 47.5 µM and 27.9 µg/mL | 132 µM and 150 µg/mL | 150 µg/mL | > 371 µM and 150 µg/mL | 47.4 µg/mL | 23.2 µM and 7.91 µg/mL | 111 | > 371 | 46.2 µg/mL | 31.4 µg/mL | inactive | inactive | 54.1 µg/mL | > 371 |  |  |
| COc1cc(C2c3cc4c(cc3[C@@H](Nc3ccc(N(C)C)cc3)[C@H]3COC(=O)C23)OCO4)cc(OC)c1O (stereo partly drawn) | 16.9 µM | 10.9 µM and 13.3 µM | 9.26 µM and 10.9 µM | 2.95 µM and 3.2 µM | 0.877 µM and 2.47 µM | 11.7 µM and 20.2 µM |  | 0.881 µM |  | 17 | 0.202 µM | 5.52 µM |  |  | 0.596 µM |  | 2.27 |  |
| CC12CC3(C)CC(C)(C1)CC(N=[N+]=[N-])(C2)C3 | > 100 µM | > 100 µM | > 100 µM | > 100 µM | > 100 µM | > 100 µM |  |  |  | > 100 |  |  |  |  |  |  |  |  |
| Cc1cc(O)c2c(c1)C(O)(c1ccc3c(c1O)C(=O)c1c(O)cc(C)cc1C3(O)C1OC(CO)C(O)C(O)C1O)c1cccc(O)c1C2=O (stereo not drawn) | 22.6 µM | 16.7 µM | 27.5 µM | 22.7 µM | 30.4 µM | 24.1 µM |  |  |  | 8.38 |  |  |  |  |  |  |  |  |
| Cc1cc(Cl)ccc1NC(=O)C(=O)Cc1nc2ccc(C(=O)c3ccccc3)cc2[nH]c1=O | > 100 µM | > 100 µM | > 100 µM | > 100 µM | > 100 µM | > 100 µM |  |  |  | > 100 |  |  |  |  |  |  |  |  |
| O=C(c1ccccc1)c1c(CC(O)c2cccnc2)n(C(=O)c2ccccc2)c2ccccc12 (stereo not drawn) | 32.9 µM | 27.1 µM | 32.4 µM | 74.2 µM | 56.2 µM | 30.8 µM |  |  |  |  |  |  |  |  |  |  |  |  |
| Cc1cc(C)c2c(c1)CN1CN2Cc2cc(C)cc(C)c21 | 28.3 µM | 33.4 µM | 24.8 µM |  | 37.2 µM | 37.2 µM |  |  |  | 80.3 |  |  |  |  |  |  |  |  |
| N=C(N)SCc1cn2ccccc2n1 | > 100 µM | > 100 µM | > 100 µM | > 100 µM | > 100 µM | > 100 µM |  |  |  | > 100 |  |  |  |  |  |  |  |  |
| O=C(CCc1nc(=S)[nH][nH]1)NC12CC3CC(CC(C3)C1)C2 | > 100 µM | > 100 µM | > 100 µM | > 100 µM | > 100 µM | > 100 µM |  |  |  | > 100 |  |  |  |  |  |  |  |  |
| COC(=O)C1=CCON(c2ccccc2)C1c1ccccc1 (stereo not drawn) | > 100 µM | > 100 µM | > 100 µM | > 100 µM | > 100 µM |  |  |  |  | > 100 |  |  |  |  |  |  |  |  |
| O=c1nc(-c2ccccc2)c2c3c(cccn13)CCC2 | > 100 µM | > 100 µM | > 100 µM | > 100 µM | > 100 µM | > 100 µM |  |  |  |  |  |  |  |  |  |  |  |  |

| SMILES | TGI (OVCAR-3 ovarian) | TGI (XF 498 CNS) | TGI (SNB-75 CNS) | TGI (DMS 114 small cell lung) | TGI (DMS 273 small cell lung) | TGI (HCT-116 colon) | GI50 (OVCAR-3 ovarian) | GI50 (SNB-75 CNS) | GI50 (HOP-18 NSCLC) [µM] | TGI (HOP-18 NSCLC) [µM] | GI50 (DMS 273 small cell lung) | GI50 (HCT-116 colon) | outcome (XF 498 CNS) | outcome (HOP-18 NSCLC) | GI50 (DMS 114 small cell lung) | TGI (MDA-MB-435) [µM] | GI50 (XF 498 CNS) [µM] | TGI (PC-3 prostate) [µM] |
| --- | --- | --- | --- | --- | --- | --- | --- | --- | --- | --- | --- | --- | --- | --- | --- | --- | --- | --- |
| Fc1cccc(Cl)c1C1SCc2nc3ccccc3n21 (stereo not drawn) | 53.2 µM | 66.1 µM | > 100 µM | 65.6 µM | 57.9 µM | 55.1 µM |  |  |  | > 100 |  |  |  |  |  |  |  |  |
| O=C1c2ccccc2N2OC3(N4CCCC4)CCCC3C12c1ccccc1 (stereo not drawn) |  | > 100 µM | > 100 µM | > 100 µM | > 100 µM | > 100 µM |  |  |  | > 100 |  |  |  |  |  |  |  |  |
| COC(=O)c1nc(NN)[nH]c(=O)c1CCCCCc1c(C(=O)OC)[nH]c(NN)cc1=O | > 100 µM | > 100 µM | > 100 µM | > 100 µM | > 100 µM | > 100 µM |  |  |  | > 100 |  |  |  |  |  |  |  |  |
| CCc1ccccc1NC(=O)C(=O)C(C(=O)c1ccc(OC)cc1)c1ccc(OC)cc1 (stereo not drawn) | > 100 µM | > 100 µM |  | > 100 µM | > 100 µM | > 100 µM |  |  |  | > 100 |  |  |  |  |  |  |  |  |
| Cc1cc([N+](=O)[O-])c(C)c2c1[nH]c1ccc(/C(CCC3CCCC3)=N\N)cc12 | 36.9 µM | 28.1 µM | 46.7 µM | 35.2 µM | 36.3 µM | 21.7 µM |  |  |  | 23.8 |  |  |  |  |  |  |  |  |
| Clc1ccc([O][In]([O]c2ccc(Cl)cn2)[O]c2ccc(Cl)cn2)nc1 | > 100 µM |  | > 100 µM | > 100 µM | > 100 µM | > 100 µM | > 100 µM | > 100 µM | > 100 | > 100 | > 100 µM | > 100 µM |  |  | > 100 µM |  |  |  |
| COc1cc2nncc(Sc3cnnc4ccccc34)c2cc1OC | 33.3 µM |  |  | > 100 µM | 81.7 µM |  |  |  |  | 37.8 |  |  |  |  |  |  |  |  |
| CC1(C)C(=O)C(O)=CC2C1=CCC1C2(C)C(=O)CC2(C)C(C(C)(O)C(=O)CC(O)C(C)(C)O)C(O)CC12C (stereo not drawn) | 10.2 µM | 6.34 µM | 4.77 µM | 45.9 µM | 9.61 µM | 33.7 µM |  | 1.74 µM |  | 12.3 |  |  |  |  |  |  |  |  |
| CCC1(Br)C(=O)NC(=O)N(C2CC(O)C(CO)O2)C1N=[N+]=[N-] (stereo not drawn) | > 100 µM | > 100 µM | > 100 µM | > 100 µM | > 100 µM |  |  |  |  |  |  |  |  |  |  |  |  |  |
| O=[N+]([O-])c1ccc(N=Nc2c(O)[nH]c3ccc([N+](=O)[O-])cc23)cc1 | 42 µM | 32.3 µM | > 100 µM | 86.3 µM | 33.6 µM |  |  |  |  |  |  |  |  |  |  |  |  |  |
| COC(=O)c1ccc2c(c1)C(NC(C)=O)CCc1cc(OC)c(OC)c(OC)c1-2 (stereo not drawn) | 1.23 µM | > 100 µM | 15.1 µM | 0.0356 µM | > 100 µM | 0.391 µM |  |  |  | > 100 |  |  |  |  |  | < 0.01 |  | > 36.9 |
| CC(C)N(C(C)C)[PH+]1O[PH+](N(C(C)C)C(C)C)O[PH+](N(C(C)C)C(C)C)O[PH+](N(C(C)C)C(C)C)O[PH+](N(C(C)C)C(C)C)O1.[C-]#[O+].[C-]#[O+].[C-]#[O+].[C-]#[O+].[C-]#[O+].[C-]#[O+].[C-]#[O+].[Cr].[Cr] (stereo not drawn) | > 100 µM | > 100 µM | > 100 µM | > 100 µM | > 100 µM | > 100 µM | > 100 µM | 75.4 µM | > 100 | > 100 | > 100 µM | > 100 µM |  |  | > 100 µM |  | > 100 |  |
| O=C(C(=O)c1ccc(Cc2ccc(C(=O)C(=O)c3ccccc3)cc2)cc1)c1ccccc1 | > 100 µM |  | > 100 µM | > 100 µM | > 100 µM | > 100 µM |  |  |  | > 100 |  |  |  |  |  |  |  |  |
| CSc1nc2c(c(O)c(C)c(=O)n2C2OC(COC(C)=O)C(OC(C)=O)C(OC(C)=O)C2OC(C)=O)c(=O)n1C (stereo not drawn) | > 100 µM | > 100 µM | > 100 µM | > 100 µM | > 100 µM | > 100 µM |  |  |  | > 100 |  |  |  |  |  |  |  |  |
| COC1/C=C/OC2(C)Oc3c(C)c(O)c4c(c3C2=O)C(=O)C=C(NC(=O)/C(C)=C\C=C\C(C)C(OC=O)C(C)C(O)C(C)C(OC(C)=O)C1C)C4=O (stereo not drawn) | 11.9 µM | 12.8 µM | 41.1 µM | 34.6 µM | 30.9 µM | 14.1 µM |  |  |  | 15.8 |  |  |  |  |  | 33.3 |  | 25.1 |
